Experimental findings from PubChem BioAssay AID248 (DTP/NCI, 2004) are described below.

Inconclusive results and toxic doses are left out.

For the test, the system named is L1210 leukemia ip in BDF1 mice, survival T/C. Put plainly: NCI In Vivo Anticancer Drug Screen. Data for tumor model L1210 Leukemia (intraperitoneal) in B6D2F1 (BDF1) mice. The settings on record: endpoint: mean survival time, higher = longer survival. In short, it runs like this:
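Read-out is survival time, reported as the treated-group measurement over the vehicle-control measurement.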

Setting [1] is: dose: 100.0 mg/kg/injection, schedule: Q01DX009 (ip), vehicle: saline with Tween-80.
[2] abbreviates: dose: 100.0 mg/kg/injection, schedule: Q04DX003 (ip), vehicle: saline with Tween-80.
Where [3] appears, read: dose: 25.0 mg/kg/injection, schedule: Q01DX001 (ip), vehicle: saline.
Where [4] appears, read: dose: 50.0 mg/kg/injection, schedule: Q01DX001 (ip), vehicle: saline.
The mark [5] stands for this setting: dose: 100.0 mg/kg/injection, schedule: Q01DX001 (ip), vehicle: Klucel (hydroxypropylcellulose) (HPC).
Setting [6] is: dose: 200.0 mg/kg/injection, schedule: Q01DX001 (ip), vehicle: Klucel (hydroxypropylcellulose) (HPC).
[7] abbreviates: dose: 400.0 mg/kg/injection, schedule: Q01DX001 (ip), vehicle: Klucel (hydroxypropylcellulose) (HPC).

Regarding `CC(=O)C(=Cc1c[nH]c2ccccc12)C(C)=O`, the T/C by setting is: (dose: 50.0 mg/kg/injection, schedule: Q01DX009 (ip), vehicle: water) 98 % of control; (dose: 100.0 mg/kg/injection, schedule: Q01DX009 (ip), vehicle: water) 112 % of control; (dose: 100.0 mg/kg/injection, schedule: Q04DX003 (ip), vehicle: water) 106 % of control; (dose: 200.0 mg/kg/injection, schedule: Q01DX009 (ip), vehicle: water) 98 % of control; (dose: 200.0 mg/kg/injection, schedule: Q04DX003 (ip), vehicle: water) 103 % of control; (dose: 400.0 mg/kg/injection, schedule: Q01DX009 (ip), vehicle: water) 95 % of control. For the same compound, the T/C (dose: 400.0 mg/kg/injection, schedule: Q04DX003 (ip), vehicle: water) is 104 % of control.
On to `Cc1cc2ccccc2oc1=O`, for which the T/C is 101 % of control (dose: 25.0 mg/kg/injection, schedule: Q01DX009 (ip), vehicle: saline with Tween-80); 98 % of control (dose: 25.0 mg/kg/injection, schedule: Q04DX003 (ip), vehicle: saline with Tween-80); 114 % of control (dose: 50.0 mg/kg/injection, schedule: Q01DX009 (ip), vehicle: saline with Tween-80); 93 % of control (dose: 50.0 mg/kg/injection, schedule: Q04DX003 (ip), vehicle: saline with Tween-80); 107 % of control under setting [1]; 86 % of control under setting [2].
In the case of `NC(=O)NNc1ccccc1`, the T/C reads like this: (dose: 100.0 mg/kg/injection, schedule: Q04DX002 (ip), vehicle: Klucel (hydroxypropylcellulose) (HPC)) 94 % of control; (dose: 200.0 mg/kg/injection, schedule: Q04DX002 (ip), vehicle: Klucel (hydroxypropylcellulose) (HPC)) 94 % of control; (dose: 400.0 mg/kg/injection, schedule: Q04DX002 (ip), vehicle: Klucel (hydroxypropylcellulose) (HPC)) 90 % of control.
Turning to `OCC1OC(n2ccc3c(Cl)ncnc32)C(O)C1O` (configuration not stated), the T/C was 110 % of control under setting [3]; 104 % of control under setting [4]; 110 % of control (dose: 100.0 mg/kg/injection, schedule: Q01DX001 (ip), vehicle: saline); 110 % of control (dose: 200.0 mg/kg/injection, schedule: Q01DX001 (ip), vehicle: saline).
Turning to `Cc1cccc(C(=O)OCc2ccccc2CN2CCCCC2C)c1` (configuration not stated), the T/C by setting is: under setting [5], 93 % of control; under setting [6], 93 % of control.
Regarding `CC(O)[CH2][Sb]([Br])([Br])([c]1ccccc1)[c]1ccccc1` (configuration not stated), the T/C was 97 % of control (dose: 5.0 mg/kg/injection, schedule: Q04DX002 (ip), vehicle: saline with Tween-80); 104 % of control (dose: 10.0 mg/kg/injection, schedule: Q04DX002 (ip), vehicle: saline with Tween-80); 104 % of control (dose: 20.0 mg/kg/injection, schedule: Q04DX002 (ip), vehicle: saline with Tween-80).
Regarding `O=C1OCCN1c1ccccc1`, the T/C reads like this: under setting [5], 90 % of control; under setting [1], 93 % of control; under setting [2], 101 % of control; under setting [6], 87 % of control; (dose: 200.0 mg/kg/injection, schedule: Q01DX009 (ip), vehicle: saline with Tween-80) 90 % of control; (dose: 200.0 mg/kg/injection, schedule: Q04DX003 (ip), vehicle: saline with Tween-80) 113 % of control. Also, the T/C is, setting by setting: under setting [7], 100 % of control; (dose: 400.0 mg/kg/injection, schedule: Q01DX009 (ip), vehicle: saline with Tween-80) 93 % of control; (dose: 400.0 mg/kg/injection, schedule: Q04DX003 (ip), vehicle: saline with Tween-80) 95 % of control.
Turning to `CCOC(=O)C(NNc1ccccc1)C(c1ccccc1)[P+](c1ccccc1)(c1ccccc1)c1ccccc1` (configuration not stated), the T/C (dose: 75.0 mg/kg/injection, schedule: Q01DX001 (ip), vehicle: carboxymethylcellulose (CMC)) is 101 % of control.
On to `N#CC(c1ccccc1)c1ccccc1`, for which the T/C runs as follows: (dose: 100.0 mg/kg/injection, schedule: Q01DX001 (ip), vehicle: other) 97 % of control; (dose: 200.0 mg/kg/injection, schedule: Q01DX001 (ip), vehicle: other) 90 % of control; (dose: 400.0 mg/kg/injection, schedule: Q01DX001 (ip), vehicle: other) 95 % of control.
For `CC12CCC3CC1OC(=O)C32` (configuration not stated), the T/C runs as follows: (dose: 12.5 mg/kg/injection, schedule: Q01DX001 (ip), vehicle: saline) 98 % of control; under setting [3], 94 % of control; under setting [4], 105 % of control.
Regarding `CC(=O)OCCC#N`, the T/C is 95 % of control (dose: 50.0 mg/kg/injection, schedule: Q01DX001 (ip), vehicle: carboxymethylcellulose (CMC)); 95 % of control (dose: 100.0 mg/kg/injection, schedule: Q01DX001 (ip), vehicle: carboxymethylcellulose (CMC)); 106 % of control (dose: 200.0 mg/kg/injection, schedule: Q01DX001 (ip), vehicle: carboxymethylcellulose (CMC)); 95 % of control (dose: 400.0 mg/kg/injection, schedule: Q01DX001 (ip), vehicle: carboxymethylcellulose (CMC)).
Take `O=C(NCCCl)OCCCl`: the T/C (dose: 100.0 mg/kg/injection, schedule: Q04DX002 (ip), vehicle: saline) is 94 % of control; the T/C (dose: 200.0 mg/kg/injection, schedule: Q04DX002 (ip), vehicle: saline) was 97 % of control; the T/C (dose: 400.0 mg/kg/injection, schedule: Q04DX002 (ip), vehicle: saline) was 94 % of control.
In the case of `CN(N=O)C(=O)NCCNc1ncnc2nc[nH]c12`, the T/C was 86 % of control (dose: 43.0 mg/kg/injection, schedule: Q01DX Z (ip), vehicle: carboxymethylcellulose (CMC)); 93 % of control (dose: 87.0 mg/kg/injection, schedule: Q01DX Z (ip), vehicle: carboxymethylcellulose (CMC)); 94 % of control (dose: 175.0 mg/kg/injection, schedule: Q01DX Z (ip), vehicle: carboxymethylcellulose (CMC)); 114 % of control (dose: 350.0 mg/kg/injection, schedule: Q01DX Z (ip), vehicle: carboxymethylcellulose (CMC)).
On to `CC1=CC(=O)C2=C(C)CCC3C(C)C(=O)OC3C12` (configuration not stated), for which the T/C reads like this: (dose: 200.0 mg/kg/injection, schedule: Q01DX001 (ip), vehicle: saline with Tween-80) 98 % of control; (dose: 400.0 mg/kg/injection, schedule: Q01DX001 (ip), vehicle: saline with Tween-80) 162 % of control.
For the compound `Nc1nc(=S)c2ncn(C3OC(COC(=O)c4ccccc4)C(OC(=O)c4ccccc4)C3OC(=O)c3ccccc3)c2[nH]1` (configuration not stated), the T/C is, setting by setting: (dose: 0.1 mg/kg/injection, schedule: Q01DX009 (ip), vehicle: saline) 104 % of control; (dose: 0.3 mg/kg/injection, schedule: Q01DX009 (ip), vehicle: saline) 118 % of control; (dose: 0.6 mg/kg/injection, schedule: Q01DX009 (ip), vehicle: saline) 118 % of control; (dose: 5.0 mg/kg/injection, schedule: Q01DX009 (ip), vehicle: saline) 159 % of control; (dose: 29.0 mg/kg/injection, schedule: Q01DX Z (ip), vehicle: methylcellulose (MC)) 116 % of control; (dose: 45.0 mg/kg/injection, schedule: Q01DX009 (ip), vehicle: saline) 164 % of control. The T/C is, setting by setting: (dose: 100.0 mg/kg/injection, schedule: Q01DX Z (ip), vehicle: methylcellulose (MC)) 153 % of control; (dose: 175.0 mg/kg/injection, schedule: Q01DX009 (ip), vehicle: saline) 98 % of control; (dose: 265.0 mg/kg/injection, schedule: Q01DX001 (ip), vehicle: saline) 118 % of control; (dose: 400.0 mg/kg/injection, schedule: Q01DX001 (ip), vehicle: saline) 86 % of control.
As for `CCCCCCCCCCCCCCSCCSCCSCCCCCCCCCCCCCC`, the T/C reads like this: (dose: 12.5 mg/kg/injection, schedule: Q01DX001 (ip), vehicle: Klucel (hydroxypropylcellulose) (HPC)) 103 % of control; (dose: 25.0 mg/kg/injection, schedule: Q01DX001 (ip), vehicle: Klucel (hydroxypropylcellulose) (HPC)) 97 % of control; (dose: 50.0 mg/kg/injection, schedule: Q01DX001 (ip), vehicle: Klucel (hydroxypropylcellulose) (HPC)) 89 % of control; under setting [7], 87 % of control.
As to `CCC1(CC)NC(=O)N(CCO)C1=O`, the T/C is 110 % of control (dose: 50.0 mg/kg/injection, schedule: Q04DX003 (ip), vehicle: saline); 95 % of control (dose: 100.0 mg/kg/injection, schedule: Q04DX003 (ip), vehicle: saline); 106 % of control (dose: 200.0 mg/kg/injection, schedule: Q04DX003 (ip), vehicle: saline); 105 % of control (dose: 400.0 mg/kg/injection, schedule: Q04DX003 (ip), vehicle: saline).
